From patent publication US20120283175A1, “ANTIBACTERIAL COMPOSITIONS” (Achaogen, Inc., priority 2009, published 2012) come the findings set out here.

The test system of one experiment is Klebsiella pneumoniae. Put plainly: Checkerboard synergy assay with LpxCi-4. Type of experiment: cell-based. The conditions noted are these: combination with LpxCi-4. From the text:
(§1) One classic method for assessing synergy, referred to as the checkerboard assay, is used to predict the efficacy of antibacterial agents, and is described by Scribner et. al., (Antimicrobial Agents and Chemotherapy 21(6):939-943 (1982)) and in Goodman & Gilman (The Pharmacological Basis of Therapeutics, Sixth Edition, pp. 1097-1098 (1980)). The checkerboard assay involves serial two-fold dilutions of the antibiotics individually and in combination in broth, which is then inoculated with the microorganism to be tested. After incubation, the minimum inhibitory concentration (MIC) of each drug used individually and in combination is determined (N.B., the MIC is the lowest concentration of the drug that inhibits growth in the medium). Synergism is indicated by a decrease in the MIC of each drug when used in combination. Antagonism is indicated by an increase in the MIC of either or both drugs when used in combination. Alternate methods of assessing synergy are reviewed in Greco, et al., Pharmacological Reviews 47(2):[…] (1995), incorporated herein by reference in its entirety.
(§2) Partial or full inhibition of LpxC should compromise the outer membrane and thus allow these synergizing agents to enter the cells and exert an antibacterial effect at concentrations where cells untreated with an LpxC inhibitor are unaffected. As a first step, checkerboard synergy assays for a variety of antibacterial agents were perform with several LpxC inhibitors, on several species of gram negative bacteria.
(§3) Bacterial isolates were cultivated from −70° C. frozen stocks of the indicated strains by overnight passages at 35° C. in ambient air on Mueller-Hinton agar (Beckton Dickinson, Franklin Lakes, N.J.). Minimum Inhibitory Concentrations (MICs) were determined by the broth microdilution method in accordance with the Clinical and Laboratory Standards Institute (CLSI) guidelines. In brief, organism suspensions were adjusted to a 0.5 McFarland standard to yield a final inoculum between 3×10^5 and 7×10^5 colony-forming units (CFU)/mL. Drug dilutions and inocula were made in sterile, cation adjusted Mueller-Hinton Broth (Beckton Dickinson). An inoculum volume of 100 μL was added to wells containing 100 μL of broth with 2-fold serial dilutions of drug. All inoculated microdilution trays were incubated in ambient air at 35° C. for 18-24 hours. Following incubation, the lowest concentration of the drug that prevented visible growth (OD600 nm <0.05) was recorded as the MIC.
(§4) Standard checkerboard assays were performed with a combination of the indicated agents and LpxCi-4. Table 2 provides the FICI calculated according to standard techniques.

A further experiment relates to Pseudomonas aeruginosa. The experiment in a line: Checkerboard synergy assay with LpxCi-4. Type of experiment: cell-based. To be noted: combination with LpxCi-4 (3936), Pseudomonas aeruginosa (ATCC27853 in text).
Source text: as §1, §2, §3, §4

In the next experiment the test system is Yersinia enterocolitica. Put plainly: Checkerboard synergy assay with LpxCi-4. To be noted: combination with LpxCi-4. Type of experiment: cell-based.
Source text: as §1, §2, §3, §4

The test system of the next experiment is E. coli ATCC25922. Put plainly: MIC by broth microdilution, wild type strain ATCC25922. Type of experiment: cell-based. On the procedure:
as §3
On the technique in general: Broth dilution looks for growth in wells or tubes with falling amounts of substance.

The test system of another experiment is envA+ (D21) E. coli. Put plainly: MIC by broth microdilution, isogenic envA+ strain. Type of experiment: cell-based. The method, then:
as §3

The next experiment concerns envA1 (D22) E. coli. Put plainly: MIC by broth microdilution, isogenic envA1 mutant strain. The conditions noted are these: for MIC: Strain envA1 (D21); for Fold decrease in MIC (envA+/envA1): envA+ vs envA1 E. coli. Type of experiment: cell-based. On the procedure: as §3
Experiment [1] has as its system P. aeruginosa (ATCC27853). The conditions noted are these: for ΔLogCFU vs 24 hr / Log CFU Mean: 24 hr; for Log CFU Mean: n=5. The text has this:
(§5) The model was run essentially as described by Craig and others (see Gudmundsson et al., “Murine Thigh Infection Model,” Handbook of Animal Models of Infection, M. A. Sande and O. Zak, Eds.; London: Academic Press, 1999, pp 137-144). Briefly, mice were rendered neutropenic prior to infection with 2 doses of cyclophosphamide, and then infected intramuscularly in the thigh with inocula of 10^3-10^5 CFU of either K. pneumo. (ATCC43816) or P. aeruginosa (ATCC27853). Antibiotics or vehicle alone as a negative control were administered twice at 2 hrs and 14 hrs post-infection. The animals were kept neutropenic for the duration of the experiment in order to minimize the effect of white blood cells on the infection such that the microbiological readout measures the in vivo interaction of drugs and bacteria. At 24 hrs post-infection, thighs were harvested, homogenized, and plated to measure the number of CFUs surviving per thigh. Thighs from a subset of animals were also harvested 2 hrs post-infection to record the CFUs present just prior to the first antibiotic treatment (pre-treatment).
This table focuses on the sensitive part of the LpxCi-4 dose response curve (30 mg/kg) by examining the mean log CFU at 0 or 24 hours, as well as the log change in CFU at 24 hours relative to zero hours (“ΔLogCFU vs […]”). Data is given for animals treated with vehicle, LpxCi-4 at 30 mg/kg, a second agent alone at the indicated doses or the combination of LpxCi-4 at 30 mg/kg plus the second agent at the indicated dose. The standard errors for each measurement are also given (n=5 animals/group). By comparing the observed drop in CFU of the combination with the sum of the drop in CFU associated with each of the two agents given separately, one can determine whether the combination is, in fact, synergistic in vivo.

Another experiment has as its system gram negative bacteria. Put plainly: Checkerboard synergy score at fractions of the antibacterial agent's MIC, with LpxCi-1, -2, -3. Type of experiment: cell-based. Also on record: scale not given here. On the procedure: as §2, §3
A further experiment deals with K. pneumo. (ATCC43816). The experiment in a line: Neutropenic thigh in vivo efficacy model (mice). Also on record: species or system Klebsiella pneumoniae. To be noted: K. pneumo. (ATCC43816); summary.
Source text: as §5

Where [2] appears, read: second block of Table 5, mg/kg/day b.i.d.: 3936 30, Eryth. 60, Dapto. 3, Oxacil. 100.
[3] abbreviates: first block of Table 5, mg/kg/day b.i.d.: 3936 30, Rif. 30, Azith. 50.

Values after ≈ are worked out from the molar mass of the structure shown. “Also recorded” adds a separate entry of the source. Where two headings read alike, the source gives them in different places. Bounds are passed on as bounds.

In the case of `CO/N=C(\C(=O)N[C@@H]1C(=O)N2C(C(=O)O)=C(COC(C)=O)CS[C@H]12)c1csc(N)n1` [Cefotaxime, cefotaxime], the FICI index in the experiment on Klebsiella pneumoniae was 0.5; in the experiment with Pseudomonas aeruginosa, “≦1.0”; in the experiment on Yersinia enterocolitica, “≦0.5”.
For `Nc1nc(/C(=N/O)C(=O)N[C@@H]2C(=O)N3C(C(=O)O)=C(/C=C4\CCN([C@@H]5CCNC5)C4=O)CS[C@H]23)ns1` [Ceftobioprole], in that order: 0.63, 0.5 and 0.5.
On to `CCC[C@@H]1C[C@@H](C(=O)N[C@@H]([C@H]2O[C@H](SC)[C@H](O)[C@@H](O)[C@H]2O)[C@H](C)Cl)N(C)C1` [Clindamycin, clindamycin], for which the FICI index entry is “≦0.5” in the experiment on Klebsiella pneumoniae, “no effect” with Pseudomonas aeruginosa and 0.13 in the experiment with Yersinia enterocolitica.
As usually defined, the MIC is the smallest concentration in the dilution series that meets the test's criterion for growth inhibition. `CCCCCCCCCC(=O)N[C@@H](Cc1c[nH]c2ccccc12)C(=O)N[C@H](CC(N)=O)C(=O)N[C@@H](CC(=O)O)C(=O)N[C@@H]1C(=O)NCC(=O)N[C@@H](CCCN)C(=O)N[C@@H](CC(=O)O)C(=O)N[C@H](C)C(=O)N[C@@H](CC(=O)O)C(=O)NCC(=O)N[C@H](CO)C(=O)N[C@@H]([C@H](C)CC(=O)O)C(=O)N[C@@H](CC(=O)c2ccccc2N)C(=O)O[C@@H]1C` [Daptomycin, daptomycin]: the figures for the minimal inhibitory concentration (MIC) in the experiment with E. coli ATCC25922, against envA+ (D21) E. coli and with envA1 (D22) E. coli were more than 256 µg/mL, 256 µg/mL (≈ 158 µM) and 32 µg/mL (≈ 19.7 µM), respectively. Also, in the experiment with envA1 (D22) E. coli, the “Fold decrease in MIC (envA+/envA1)” value came out at 8. Moreover, the “MIC shift due to modification of envA” value in the experiment with envA1 (D22) E. coli (isogenic envA1 (D22) vs envA+ (D21) E. coli) was 8 ×. Besides, the FICI index result in the experiment with Klebsiella pneumoniae and with Pseudomonas aeruginosa was “no measurable synergy; also recorded: no effect” each time. The “ΔLogCFU vs 24 hr” value in experiment [1] (setting [2]) is −1.04. The “Log CFU Mean” value in experiment [1] (setting [2]) is 6.6.
Take `C[C@H]1COc2c(N3CCN(C)CC3)c(F)cc3c(=O)c(C(=O)O)cn1c23` [Levofloxacin]: the FICI index in the experiment on Klebsiella pneumoniae was 0.5; in the experiment on Pseudomonas aeruginosa it was “no effect”; in the experiment on Yersinia enterocolitica, 0.63.
As for `CC(=O)NC[C@H]1CN(c2ccc(N3CCOCC3)c(F)c2)C(=O)O1` [Linezolid, linezolid], the FICI index entry in the experiment on Klebsiella pneumoniae was “≦0.5”; in the experiment with Pseudomonas aeruginosa, “no effect”. The “Synergy Score” value in the experiment on gram negative bacteria (with LpxCi-1, antibacterial agent at 1/16 MIC) came out at 0.46; in the experiment on gram negative bacteria (with LpxCi-1, antibacterial agent at 1/64 MIC), 1.03; in the experiment on gram negative bacteria (with LpxCi-1, antibacterial agent at ¼ MIC), 0.54; with gram negative bacteria (with LpxCi-2, antibacterial agent at ¼ MIC), 1.25; in the experiment on gram negative bacteria (with LpxCi-3, antibacterial agent at 1/16 MIC), 1.06; with gram negative bacteria (with LpxCi-3, antibacterial agent at 1/64 MIC), 1.02. Besides, in the experiment on gram negative bacteria (with LpxCi-3, antibacterial agent at ¼ MIC), the “Synergy Score” value stood at 0.58.
Take `CO[C@H]1/C=C/O[C@@]2(C)Oc3c(C)c(O)c4c(O)c(c(/C=N/N5CCN(C)CC5)c(O)c4c3C2=O)NC(=O)/C(C)=C\C=C\[C@H](C)[C@H](O)[C@@H](C)[C@@H](O)[C@@H](C)[C@H](OC(C)=O)[C@@H]1C` [Rifampin, rifampin]: the minimal inhibitory concentration (MIC) in the experiment with E. coli ATCC25922 was 16 µg/mL (≈ 19.4 µM); against envA+ (D21) E. coli, 16 µg/mL (≈ 19.4 µM); against envA1 (D22) E. coli it was 0.25 µg/mL (≈ 0.304 µM). The FICI index entry was “≦0.08” in the experiment on Klebsiella pneumoniae, “≦1.0” with Pseudomonas aeruginosa, less than 1.0 in the experiment with Pseudomonas aeruginosa (listed as rifampin) and 0.19 in the experiment with Yersinia enterocolitica. Moreover, in the experiment on K. pneumo. (ATCC43816), the “in vivo synergy with multiple LpxC inhibitors” value is “surprising in vivo synergy”. In experiment [1] (setting [3]), the “ΔLogCFU vs 24 hr” value was −0.28. Moreover, the “Log CFU Mean” value in experiment [1] (setting [3]) was determined as 7.46. Also, in experiment [1] (P. aeruginosa (ATCC27853), summary), the “in vivo synergy with LpxC inhibitors” value was “surprising in vivo synergy”. In addition, in experiment [1] (each agent at 30 mg/kg), the “drop in CFU relative to vehicle” value is given as 0.28 log.
With gentamicin, the values for the FICI index with Klebsiella pneumoniae, with Pseudomonas aeruginosa and in the experiment with Yersinia enterocolitica were 0.75, 0.38 and 0.5, respectively.
Take teicoplanin: the figures for the MIC with E. coli ATCC25922, in the experiment on envA+ (D21) E. coli and against envA1 (D22) E. coli were more than 256 µg/mL, more than 256 µg/mL and 32 µg/mL, respectively. The “Fold decrease in MIC (envA+/envA1)” value with envA1 (D22) E. coli is on record as “≧8”. Moreover, the FICI index entry is given as “≦0.37” in the experiment with Klebsiella pneumoniae, “no effect” with Pseudomonas aeruginosa and “≦0.25” in the experiment on Yersinia enterocolitica.
